Reference: ChEMBL document CHEMBL5257080, “Optimization of physicochemical properties of pyrrolidine GPR40 AgoPAMs results in a differentiated profile with improved pharmacokinetics and reduced off-target activities” (Bioorg Med Chem, 2023)
Converted amounts (≈) assume the structure as drawn. The source made the active and inactive calls. No cut-off for these calls is given here.

Experiments:
[1] = AUC (0 to 24 hrs) in rat at 80 mg/kg qd; assay type: ADME, organism-based; design: dose 80 mg/kg; details: in vivo
[2] = AUC (0 to 24 hrs) in rat at 240 mg/kg qd; assay type: ADME, organism-based; design: dose 240 mg/kg; details: in vivo
[3] = Toxicity in Sprague-Dawley rat assessed as hypoglycemia at 80 mg/kg, po measured for 24 hrs by glucometer analysis; assay type: organism-based; details: in vivo
[4] = Tmax in rat at 240 mg/kg qd; assay type: ADME, organism-based; details: in vivo
[5] = Cmax in rat at 80 mg/kg qd; assay type: ADME, organism-based; design: dose 80 mg/kg; details: in vivo
[6] = Permeability of compound across apical to basolateral side in dog MDCK cells; assay type: ADME, cell-based, Canis lupus familiaris; details: read-out: permeability
[7] = Tmax in rat at 800 mg/kg qd; assay type: ADME, organism-based; details: in vivo
[8] = Cmax in rat at 40 mg/kg bid; assay type: ADME, organism-based; design: dose 40 mg/kg; details: in vivo
[9] = Cmax in rat at 800 mg/kg qd; assay type: ADME, organism-based; design: dose 800 mg/kg; details: in vivo
[10] = Tmax in rat at 80 mg/kg qd; assay type: ADME, organism-based; details: in vivo
[11] = Cmax in rat at 240 mg/kg qd; assay type: ADME, organism-based; design: dose 240 mg/kg; details: in vivo
[12] = AUC (0 to 24 hrs) in rat at 800 mg/kg qd; assay type: ADME, organism-based; design: dose 800 mg/kg; details: in vivo
[13] = Solubility of the compound in FaSSIF at pH 6.5; assay type: ADME
[14] = Solubility of the compound in FeSSIF at pH 5; assay type: ADME
Rattus norvegicus [15] = assay: Hyperglycemic activity in Sprague-Dawley rat assessed as effect on blood glucose level at 150 mg/kg, qd by glucometer; assay type: functional, organism-based
[16] = Toxicity in Sprague-Dawley rat assessed as decrease in islet size at 300 mg/kg, po measured for 1 months; assay type: organism-based; design: scale not given: the % may be the effect or the level left; details: in vivo, 730 h
[17] = AUC (0 to 24 hrs) in rat at 150 mg/kg, po bid; assay type: ADME, organism-based; design: dose 150 mg/kg, route po; details: in vivo
[18] = Cmax in rat at 160 mg/kg bid; assay type: ADME, organism-based; design: dose 160 mg/kg; details: in vivo
Cytochrome P450 2C8 = biological target: T1, Cytochrome P450 2C8 (Homo sapiens, UniProt P10632); assay: Inhibition of CYP2C8 in human liver microsomes; assay type: ADME, Microsome
T1 sequence (P10632 whole entry): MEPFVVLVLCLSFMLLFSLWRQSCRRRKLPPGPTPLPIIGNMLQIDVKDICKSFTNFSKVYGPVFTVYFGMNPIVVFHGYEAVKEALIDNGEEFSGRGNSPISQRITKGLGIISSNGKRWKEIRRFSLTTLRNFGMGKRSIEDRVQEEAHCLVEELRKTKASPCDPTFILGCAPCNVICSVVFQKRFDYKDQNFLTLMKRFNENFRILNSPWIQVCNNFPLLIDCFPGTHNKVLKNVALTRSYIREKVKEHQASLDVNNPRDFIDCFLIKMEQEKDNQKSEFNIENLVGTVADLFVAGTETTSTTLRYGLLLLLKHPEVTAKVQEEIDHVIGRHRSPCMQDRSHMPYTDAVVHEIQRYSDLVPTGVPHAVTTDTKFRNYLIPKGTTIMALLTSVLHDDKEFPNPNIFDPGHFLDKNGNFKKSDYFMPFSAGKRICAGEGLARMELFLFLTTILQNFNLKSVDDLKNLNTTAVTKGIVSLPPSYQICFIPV

[19] = biological target: Free fatty acid receptor 1 (Homo sapiens, UniProt O14842); assay: Positive allosteric modulation of human GPR40 expressed in HEK293 cells assessed as cAMP accumulation; assay type: cell-based
[20] = Cmax in rat at 400 mg/kg bid; assay type: ADME, organism-based; design: dose 400 mg/kg; details: in vivo
[21] = Toxicity in Sprague-Dawley rat assessed as decrease in islet number at 300 mg/kg, po measured for 1 months; assay type: organism-based; details: in vivo, 730 h
Rattus norvegicus [22] = assay: Anti-hyperglycemic activity against Sprague-Dawley rat assessed as reduction in plasma glucose AUC at 0.3 mg/kg, po measured for 20 to 120 mins by OGTT analysis; assay type: functional, organism-based; details: time lower 20.0 min, time upper […]
[23] = Tmax in rat at 40 mg/kg bid; assay type: ADME, organism-based; details: in vivo
Cytochrome P450 2D6 = Cytochrome P450 2D6 (Homo sapiens, UniProt P10635); assay: Inhibition of CYP2D6 in human liver microsomes; assay type: ADME, Microsome
Cytochrome P450 2C9 = Cytochrome P450 2C9 (Homo sapiens, UniProt P11712); assay: Inhibition of CYP2C9 in human liver microsomes; assay type: ADME, Microsome
[24] = AUC (0 to 24 hrs) in rat at 160 mg/kg bid; assay type: ADME, organism-based; design: dose 160 mg/kg; details: in vivo
[25] = Toxicity in Sprague-Dawley rat assessed as islet cell cytoplasmic alteration at 60 mg/kg, po measured for 1 months; assay type: organism-based; details: in vivo, 730 h
[26] = Toxicity in Sprague-Dawley rat assessed as effect on pancrease at AUC measured for 1 months; details: in vivo, 730 h
[27] = Toxicity in rat assessed as NOAEL by measuring AUC (0 to 24 hrs) measured for 28 days; details: in vivo, time 28 day
[28] = AUC (0 to 24 hrs) in rat at 400 mg/kg bid; assay type: ADME, organism-based; design: dose 400 mg/kg; details: in vivo
[29] = Solubility in phosphate buffer at pH 6.5; assay type: physicochemical
[30] = AUC (0 to 24 hrs) in rat at 40 mg/kg bid; assay type: ADME, organism-based; design: dose 40 mg/kg; details: in vivo
[31] = Toxicity in cynomolgus monkey assessed as effect on pancrease at 30 mg/kg, po measured for 1 months; assay type: organism-based, Macaca fascicularis; details: in vivo, 730 h
Cytochrome P450 3A4 = Cytochrome P450 3A4 (Homo sapiens, UniProt P08684); assay: Inhibition of CYP3A4 in human liver microsomes; assay type: ADME, Microsome
Cytochrome P450 2B6 = biological target: T2, Cytochrome P450 2B6 (Homo sapiens, UniProt P20813); assay: Inhibition of CYP2B6 in human liver microsomes; assay type: ADME, Microsome
T2 sequence (P20813 whole entry): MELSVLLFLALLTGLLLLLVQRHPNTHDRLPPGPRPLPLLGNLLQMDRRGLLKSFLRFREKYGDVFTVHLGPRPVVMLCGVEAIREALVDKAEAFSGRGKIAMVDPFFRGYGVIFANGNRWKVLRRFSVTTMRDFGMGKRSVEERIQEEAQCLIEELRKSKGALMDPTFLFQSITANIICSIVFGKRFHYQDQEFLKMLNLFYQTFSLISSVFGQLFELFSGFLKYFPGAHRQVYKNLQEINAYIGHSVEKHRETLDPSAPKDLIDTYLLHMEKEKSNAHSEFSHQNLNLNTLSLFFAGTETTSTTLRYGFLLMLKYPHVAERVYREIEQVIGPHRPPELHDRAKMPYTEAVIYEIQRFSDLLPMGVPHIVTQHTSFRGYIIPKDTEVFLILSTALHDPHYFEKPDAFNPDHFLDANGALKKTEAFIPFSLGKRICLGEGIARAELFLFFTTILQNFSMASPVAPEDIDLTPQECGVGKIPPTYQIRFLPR

Cytochrome P450 2C19 = Cytochrome P450 2C19 (Homo sapiens, UniProt P33261); assay: Inhibition of CYP2C19 in human liver microsomes; assay type: ADME, Microsome
[32] = Tmax in rat at 400 mg/kg bid; assay type: ADME, organism-based; details: in vivo
[33] = Toxicity in Sprague-Dawley rat assessed as effect on pancrease at 300 mg/kg, po measured for 1 months; assay type: organism-based; details: in vivo, 730 h
[34] = Solubility of the compound in FeSSIF at pH 6.5; assay type: ADME
[35] = Tmax in rat at 160 mg/kg bid; assay type: ADME, organism-based; details: in vivo

Sequence of Cytochrome P450 3A4 (P08684 whole entry): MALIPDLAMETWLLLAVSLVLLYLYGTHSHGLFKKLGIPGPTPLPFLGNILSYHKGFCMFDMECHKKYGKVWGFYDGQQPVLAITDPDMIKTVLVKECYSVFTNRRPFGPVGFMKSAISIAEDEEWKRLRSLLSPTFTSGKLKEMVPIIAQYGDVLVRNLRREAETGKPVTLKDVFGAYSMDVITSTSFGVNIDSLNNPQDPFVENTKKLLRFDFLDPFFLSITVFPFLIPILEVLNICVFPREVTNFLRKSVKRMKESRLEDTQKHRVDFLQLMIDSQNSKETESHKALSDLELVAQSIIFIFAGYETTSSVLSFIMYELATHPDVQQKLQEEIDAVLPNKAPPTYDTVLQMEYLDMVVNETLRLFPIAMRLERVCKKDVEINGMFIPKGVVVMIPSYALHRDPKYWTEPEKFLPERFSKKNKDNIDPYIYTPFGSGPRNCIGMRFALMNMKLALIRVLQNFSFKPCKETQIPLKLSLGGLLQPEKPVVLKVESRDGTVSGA
Sequence of Free fatty acid receptor 1 (O14842 whole entry): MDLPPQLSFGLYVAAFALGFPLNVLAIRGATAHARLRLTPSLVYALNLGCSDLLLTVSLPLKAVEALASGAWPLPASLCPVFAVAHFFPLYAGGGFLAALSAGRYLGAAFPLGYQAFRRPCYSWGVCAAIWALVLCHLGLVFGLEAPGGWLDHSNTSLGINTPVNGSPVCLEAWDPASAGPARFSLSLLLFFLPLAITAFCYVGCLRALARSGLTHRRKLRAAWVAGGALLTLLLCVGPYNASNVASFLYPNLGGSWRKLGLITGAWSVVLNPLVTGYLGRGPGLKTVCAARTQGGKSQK
Sequence of Cytochrome P450 2D6 (P10635 whole entry): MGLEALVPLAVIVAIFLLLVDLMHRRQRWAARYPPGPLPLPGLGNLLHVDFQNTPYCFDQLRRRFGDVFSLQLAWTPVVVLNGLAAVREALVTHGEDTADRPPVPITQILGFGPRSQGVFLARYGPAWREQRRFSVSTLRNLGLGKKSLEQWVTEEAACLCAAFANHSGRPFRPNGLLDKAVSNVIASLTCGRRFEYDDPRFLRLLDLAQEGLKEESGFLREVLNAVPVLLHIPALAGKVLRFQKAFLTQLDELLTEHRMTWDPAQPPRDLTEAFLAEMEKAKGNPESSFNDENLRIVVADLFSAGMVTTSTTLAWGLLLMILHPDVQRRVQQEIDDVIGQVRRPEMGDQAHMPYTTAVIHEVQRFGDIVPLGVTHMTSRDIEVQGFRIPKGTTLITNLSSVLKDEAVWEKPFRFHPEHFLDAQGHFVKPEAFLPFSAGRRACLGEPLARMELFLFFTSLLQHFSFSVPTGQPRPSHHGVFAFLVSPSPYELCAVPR
Sequence of Cytochrome P450 2C9 (P11712 whole entry): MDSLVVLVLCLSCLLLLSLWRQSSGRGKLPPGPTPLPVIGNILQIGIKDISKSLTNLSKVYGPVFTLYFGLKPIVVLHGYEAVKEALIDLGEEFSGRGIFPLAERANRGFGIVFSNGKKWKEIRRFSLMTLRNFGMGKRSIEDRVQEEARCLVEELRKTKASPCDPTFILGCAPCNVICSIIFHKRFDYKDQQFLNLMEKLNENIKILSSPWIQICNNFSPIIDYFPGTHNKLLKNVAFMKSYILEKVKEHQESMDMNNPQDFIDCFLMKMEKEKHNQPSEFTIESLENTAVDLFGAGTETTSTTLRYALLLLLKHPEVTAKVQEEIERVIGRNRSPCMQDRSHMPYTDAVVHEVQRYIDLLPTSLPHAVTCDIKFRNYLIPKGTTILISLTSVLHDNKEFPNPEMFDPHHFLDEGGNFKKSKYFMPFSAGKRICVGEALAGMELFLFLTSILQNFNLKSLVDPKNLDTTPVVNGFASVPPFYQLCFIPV
Sequence of Cytochrome P450 2C19 (P33261 whole entry): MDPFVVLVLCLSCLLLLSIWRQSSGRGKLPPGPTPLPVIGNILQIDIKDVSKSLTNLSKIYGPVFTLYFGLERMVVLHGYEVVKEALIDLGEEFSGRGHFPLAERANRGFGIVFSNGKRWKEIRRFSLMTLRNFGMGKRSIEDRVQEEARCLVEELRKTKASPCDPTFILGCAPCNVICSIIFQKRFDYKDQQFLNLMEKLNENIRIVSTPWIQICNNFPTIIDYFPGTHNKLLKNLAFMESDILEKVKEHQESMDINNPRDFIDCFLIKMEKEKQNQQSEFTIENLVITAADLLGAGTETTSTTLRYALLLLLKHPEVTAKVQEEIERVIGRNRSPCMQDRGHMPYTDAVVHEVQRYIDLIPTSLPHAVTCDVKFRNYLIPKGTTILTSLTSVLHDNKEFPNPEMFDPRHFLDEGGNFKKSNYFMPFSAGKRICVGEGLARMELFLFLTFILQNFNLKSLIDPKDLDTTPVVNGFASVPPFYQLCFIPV

## COc1ccc(F)c(-c2ccc(Cc3ccc(N4N=C(C(F)(F)F)[C@@H](C)[C@@H]4CC(=O)O)cc3)c(C)c2)c1
[1]
  AUC: 243 µM·h
[2]
  AUC: 1080 µM·h
[3]
  Activity: Non-Toxic
[4]
  Tmax: 6 h
[5]
  Cmax: 30 µM
[6]
  Papp A→B: 5.7 ×10⁻⁶ cm/s
[7]
  Tmax: 48 h
[8]
  Cmax: 30 µM
[9]
  Cmax: 65 µM
[10]
  Tmax: 4 h
[11]
  Cmax: 30 µM
[12]
  AUC: 1430 µM·h

## COc1cc(N2CC[C@@H](Oc3ccc(N4N=C(C(F)(F)F)[C@@H](C)[C@@H]4CC(=O)O)cc3)[C@H](C)C2)c(Cl)cn1
[13]
  solubility: 9 µg/mL (≈ 16.6 µM)
[14]
  solubility: 8 µg/mL (≈ 14.8 µM)
Rattus norvegicus [15]
  Activity: Active
[16]
  Activity: 50%
[17]
  AUC: 557 µM·h
[18]
  Cmax: 106 µM
Cytochrome P450 2C8
  IC50: 1700 nM
[19]
  EC50: 3.6 µM
[20]
  Cmax: 271 µM
[21]
  Activity: Toxic
Rattus norvegicus [22]
  Activity: inactive
[23]
  Tmax: 8 h
Cytochrome P450 2D6
  IC50: 40 µM
Cytochrome P450 2C9
  IC50: 14 µM
[24]
  AUC: 1100 µM·h
[25]
  Activity: Toxic
[6]
  Papp A→B: 14.2 ×10⁻⁶ cm/s
[26]
  Activity: Non-Toxic
[27]
  AUC at […]: 404 µM·h
[28]
  AUC: 3370 µM·h
[8]
  Cmax: 64 µM
[29]
  solubility: 1 µg/mL (≈ 1.85 µM)
[30]
  AUC: 549 µM·h
[31]
  Activity: Non-Toxic
Cytochrome P450 3A4
  IC50: 3.4 µM
Cytochrome P450 2B6
  IC50: 8.1 µM
Cytochrome P450 2C19
  IC50: 38 µM
[32]
  Tmax: 8 h
[33]
  Activity: Non-Toxic
[34]
  solubility: 59 µg/mL (≈ 109 µM)
[35]
  Tmax: 8 h
